Test results reported in the supplement of paper PMC10883282.

Experiments:
Assay in all cases: standardised AUC of viability dose-response curve (72 h) (fraction (0-1)); higher = less growth inhibition (more resistant)
[1] = test system: KHOS-NP
Summary of the method: (§1)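 After 72 h with 2.5 µl of compound (compound-plate series 10 mM to 0.0002 mM), triplicate wells of sarcoma cell lines in 384-well plates were read with ATPLite, with viability scaled 1 (full) to 0 (none) and fitted with a four-parameter log-logistic model. The values give the standardised area under the dose-response curve in log-dose space from a modified drexplorer computeAUC. A value of 1 means no response and 0 means full response.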

[2] = test system: G401
Summary of the method: as §1

[3] = test system: SW982
Summary of the method: as §1

[4] = test system: VA-ES-BJ
Summary of the method: as §1

[5] = test system: A204
Summary of the method: as §1

[6] = test system: RD-ES
Summary of the method: as §1

[7] = test system: SW684
Summary of the method: as §1

[8] = test system: HT1080
Summary of the method: as §1

[9] = test system: MES-SA
Summary of the method: as §1

[10] = test system: SYO-1
Summary of the method: as §1

[11] = test system: SW1353
Summary of the method: as §1

[12] = test system: HS729
Summary of the method: as §1

[13] = test system: SK-LMS-1
Summary of the method: as §1

[14] = test system: SW872
Summary of the method: as §1

[15] = test system: KHOS-240S
Summary of the method: as §1

[16] = test system: SK-ES-1
Summary of the method: as §1

[17] = test system: RD
Summary of the method: as §1

Compound	standardised AUC [1]	standardised AUC [2]	standardised AUC [3]	standardised AUC [4]	standardised AUC [5]	standardised AUC [6]	standardised AUC [7]	standardised AUC [8]	standardised AUC [9]	standardised AUC [10]	standardised AUC [11]	standardised AUC [12]	standardised AUC [13]	standardised AUC [14]	standardised AUC [15]	standardised AUC [16]	standardised AUC [17]
CC(=O)c1c(C)c2cnc(Nc3ccc(N4CCNCC4)cn3)nc2n(C2CCCC2)c1=O [PALBOCICLIB]	0.96	0.903	0.789	0.78	0.806	0.792	0.928	0.96	0.808	0.772	0.922	0.949	0.967	0.887	0.863	0.721	0.946
COc1cc(Nc2ncc3c(n2)-c2ccc(Cl)cc2C(c2c(F)cccc2OC)=NC3)ccc1C(=O)O [ALISERTIB]	0.95	0.811	0.734	0.808	0.876	0.656	0.902	0.873	0.678	0.732	0.933	0.889	0.865	0.895	0.835	0.558	0.801
O=C1CCc2c(Oc3ccc4c(c3)[C@@H]3[C@H](O4)[C@H]3c3nc4cc(C(F)(F)F)ccc4[nH]3)ccnc2N1 [LIFIRAFENIB]	0.882	0.946	0.931	0.987	0.805	0.988	0.999	0.963	0.956	0.88	0.96	0.95	0.904	0.87	0.938	0.955	0.924
CCc1nc(C(N)=O)c(Nc2ccc(N3CCC(N4CCN(C)CC4)CC3)c(OC)c2)nc1NC1CCOCC1 [GILTERITINIB]	0.898	0.811	0.674	0.793	0.817	0.655	0.791	0.899	0.785	0.665	0.857	0.659	0.823	0.735	0.814	0.663	0.748
